{"source": "patent EP2199292A1", "about": "“7-azaindirubins, 7'-azaindirubins, 7-7'-diazaindirubin and the corresponding 3'-oxime ether derivates: production thereof, their production and use as a medicament” (Technische Universität Kaiserslautern, priority 2008, dated 2010)", "key": {"[1]": {"system": "murine C6 glioblastoma cells", "details": "compared with parent compound 5-methylindirubin; WO 03/070703; cited from earlier work"}, "human cancer cell lines": {"system": "human cancer cell lines", "assay": "Antiproliferative activity against human cancer cell lines, compared with indirubin", "assay_type": "cell-based", "details": "as compared to the parent molecule", "experimental": "(§1) The antiproliferative activity was determined using the Sulforhodamin B assay (SRB assay) as reported previously (Vatter et al. 2005, Int. J. Clin. Pharmacal.Ther. 43, 607). Table 1: Inhibition of tumor cell proliferation, SRB assay."}, "HT29": {"system": "HT29", "assay": "Inhibition of tumor cell proliferation, Sulforhodamin B assay (SRB assay), HT29", "assay_type": "cell-based", "details": "Homo sapiens, HT-29", "experimental": "as §1"}, "MCF7": {"system": "MCF7", "assay": "Inhibition of tumor cell proliferation, Sulforhodamin B assay (SRB assay), MCF7", "assay_type": "cell-based", "details": "Homo sapiens", "experimental": "as §1"}}, "note": "Where two headings read alike, the source gives them in different places."}
{"smiles": "Cc1cc2c(cc1O)NC(=O)C2=C1Nc2ccccc2C1=O", "values": [{"measurement": "inhibition of murine C6 glioblastoma cells", "setting": "[1]", "result": "as effective as the parent compound"}]}
{"smiles": "O=C1Nc2ccccc2C1=C1Nc2ncccc2C1=O", "note": "[E843, 7'-Azaindirubin]", "values": [{"measurement": "antiproliferative activity", "setting": "human cancer cell lines", "result": "markedly augmented"}]}
{"smiles": "O=C1Nc2ncccc2C1=C1Nc2ncccc2C1=O", "note": "[E864, 7,7'-Diazaindirubin]", "values": [{"measurement": "IC50", "setting": "HT29; HT29, SRB assay, read-out: Inhibition of cell proliferation IC50", "result": 5, "unit": "nM"}, {"measurement": "IC50", "setting": "HT29; HT29 colon tumor cells, IC50 values ranging down to, read-out: inhibition of proliferation IC50", "result": "≥ 2", "unit": "nM"}, {"measurement": "IC50", "setting": "MCF7; MCF7, MCF-7 breast cancer cells, IC50 values ranging down to, read-out: inhibition of proliferation IC50", "result": "≥ 2", "unit": "nM"}, {"measurement": "IC50", "setting": "MCF7; MCF7, SRB assay, read-out: Inhibition of cell proliferation IC50", "result": 7, "unit": "nM"}]}
{"smiles": "O=C1Nc2ncccc2/C1=C1/Nc2ccccc2C1=O", "note": "[Example 12, 7-Azaindirubin]", "values": [{"measurement": "antiproliferative activity", "setting": "human cancer cell lines", "result": "markedly augmented"}]}
